Measured values: patent US7018654B2, “Pharmaceutical composition containing an active agent in an amino acid copolymer structure” (New River Pharmaceuticals Inc., priority 1999, dated 2006)

Legend:
[1] = tested on: cultured human amniocytes; conditions: 0.8% solution in alpha-MEM without glutamine, with insulin and transferrin, pH 7.2
[2] = In vitro stability of glutamine by incubation in 0.2 M phosphate buffer at pH 9.0; format: physicochemical; conditions: pH 9.0, 37° C., same conditions
Procedure: The product of Example 2 was tested for stability and compared to monomeric glutamine by incubation in 0.2 M phosphate buffer at pH 9.0 as described by Price and Greenstein (J. Biol. Chem. vol. 180. p. 209, 1949), incorporated herein by reference.

[3] = Stability of Gln measured by production of free ammonia in 0.2 M phosphate buffer; format: physicochemical

Compound | Growth of cultured cells with no addition of monomeric L-glutamine [1] | Stability of glutamine (result in words) [2] | Stability of Gln, production of free ammonia (result in words) [3]
Glutamic Acid/Glutamine Co-Polymer [Example 19] | support growth of cultured human amniocytes, through multiple passages | – | –
NC(=O)CC[C@H](N)C(=O)O [monomeric glutamine, glutamine] | – | extensive degradation to ammonia and pyrrolidonecarboxylic acid | almost completely de-amidated
